Marks after values point to notes of the source that are not given here.
Assays:
miR124 = assay: Effect of the compound on miR124 upregulation in PBMCs (qPCR, U6 as internal reference); format: cell-based, human; conditions: miR-124 expression, 5 µM, 6 days, batches normalized
Method: The effect of test compounds on miR124 expression levels was evaluated in human peripheral blood mononuclear cells (PBMCs). […] Test compounds (final concentration: 5 µM) were added for treatment at 37°C, 5% CO2 for 6 days, with medium replacement on day 3. The control group was treated with an equal volume of DMSO under the same conditions.
RNA Extraction: On day 6, cells were collected in a 15 mL centrifuge tube and centrifuged at 400g for 10 min, followed by supernatant removal. […] The upper RNA layer was aspirated into a clean 1.5 mL centrifuge tube (RNase-free), an equal volume of isopropanol was added, and left at room temperature for 10 min to precipitate RNA. Centrifugation at 4°C and 12000g for 10 min yielded a small white pellet at the tube bottom.
Fluorescent quantitative PCR reaction: miRNA quantification was performed using SYBR Green I intercalating fluorescence method, with simultaneous detection of the housekeeping gene U6 transcript level as internal reference.

[1] = system: dextran sulfate sodium (DSS)-induced ulcerative colitis; assay: Preventive and therapeutic effects on DSS-induced ulcerative colitis (UC) in mice; format: in vivo, C57BL/6 mice; conditions: for relative body weight (% of initial): mean ± SEM; for Relative colon length (%): of the control group
Method: The preventive and therapeutic effects of the positive drug ABX464 and Compound 23 of the present disclosure on dextran sulfate sodium (DSS)-induced ulcerative colitis were evaluated using a DSS-induced ulcerative colitis (UC) model.
Female C57BL/6 mice (20-22 g) were randomly divided into 7 groups according to body weight after adaptive feeding, as shown in Table 4. On day 1, the mice were switched to 3% DSS feeding. After 10 days of DSS feeding, they were switched back to normal drinking water until day 13. From day 1 to day 13, the mice were continuously administered the corresponding solvents and drugs by gavage. Body weight changes were recorded daily from day 1 to day 13. On day 13, after recording body weight, the mice were dissected to measure colon length. The preventive and therapeutic effects of the test drug on ulcerative colitis in mice were evaluated based on relative body weight change rate and colon length. Table 4. Experimental animal grouping and model induction period

[2] = Pharmacokinetic study in rats (plasma, LC-MS/MS); conditions: for AUC(0-t) / Cmax / MRT inf / Tmax / half-life: rat; for F: absolute bioavailability, SD male rats, p.o. 25 mg/kg vs i.v. 1 mg/kg
Method: • (1) SD male rats were used as test animals.
The administration solvent was a physiological saline solution containing 10% DMSO + 10% polyoxyl castor oil (Cremophor EL). Fasting was maintained for approximately 12 hours prior to administration, and free feeding was allowed 4 hours post-administration, with no water restriction. […] After gently inverting the tube to fully mix the anticoagulant EDTA-K2 with the blood, the tube was immediately placed on wet ice. The plasma was separated by centrifugation immediately after blood collection under the following centrifugation conditions: 4°C, 3500 rpm, and 5 min. The upper plasma layer was transferred and stored at -80°C until sample analysis. […] The pharmacokinetic parameters were calculated from the sample analysis results using WinNonlin software.

[3] = Pharmacokinetic study in beagle dogs (plasma, LC-MS/MS); format: in vivo
Method: The pharmacokinetic characteristics of test compound 45 was investigated in beagle dogs.
The gavage group was fasted for no less than 12 hours before administration, with free access to water. After 4 h of administration, the dogs were fed uniformly. […] The upper plasma layer was transferred and stored at -20°C until sample analysis. The concentration of the test compound in dog plasma was determined using the LC-MS/MS method. Pharmacokinetic parameters were fitted using WinNonlin software, and absolute bioavailability was calculated. Table 6. Pharmacokinetic parameters of compounds in beagle dogs

[4] = by day 10, 50 mg/kg qd by gavage
[5] = day 13, 50 mg/kg qd by gavage, 50 mg/kg
[6] = male, Sprague-Dawley (SD), plasma, po, 20 mg/kg
[7] = 6.25-50 mg/kg qd by gavage, overall conclusion
[8] = day 13, 6.25 mg/kg qd by gavage
[9] = day 13, 12.5 mg/kg qd by gavage

## FC(F)(F)Oc1ccc(Nc2ccc3cccc(Cl)c3n2)cc1 [ABX464, reference compound]
miR124
  Average fold change compared to DMSO treatment, Average value: 6.91
[1]; [4]
  weight loss: 6.02%
[1]; day 1, 50 mg/kg qd by gavage
  relative body weight (% of initial): 100±0.00%
[1]; day 2, 50 mg/kg qd by gavage
  relative body weight (% of initial): 101.6± 0.45%
[1]; day 3, 50 mg/kg qd by gavage
  relative body weight (% of initial): 101.9± 0.47%
[1]; day 4, 50 mg/kg qd by gavage
  relative body weight (% of initial): 101.9± 0.62%
[1]; day 5, 50 mg/kg qd by gavage
  relative body weight (% of initial): 101.1± 0.82%
[1]; day 6, 50 mg/kg qd by gavage
  relative body weight (% of initial): 98.5±0.79%
[1]; day 7, 50 mg/kg qd by gavage
  relative body weight (% of initial): 95.6±1.09%
[1]; day 8, 50 mg/kg qd by gavage
  relative body weight (% of initial): 93.5± 1.35%
[1]; day 9, 50 mg/kg qd by gavage
  relative body weight (% of initial): 93.0±1.33%
[1]; day 10, 50 mg/kg qd by gavage
  relative body weight (% of initial): 94.0± 1.27 %
[1]; day 11, 50 mg/kg qd by gavage
  relative body weight (% of initial): 92.4± 2.22 %
[1]; day 12, 50 mg/kg qd by gavage
  relative body weight (% of initial): 92.7±2.19%
[1]; day 13, 50 mg/kg qd by gavage
  Colon length Mean: 7.72 cm
  relative body weight (% of initial): 92.0±2.52%
[1]; [5]
  Relative colon length (%): 96.5%
[2]; [6]
  AUC(0-t): 2310 ng·h/mL
  Cmax: 727 ng/mL
  MRT inf: 2.73 h
  Tmax: 2 h
  half-life: 0.86 h

## FC(F)(F)Oc1ccc(Nc2ncc3ccc(Cl)cc3n2)cc1 [Compound 23]
miR124
  Average fold change compared to DMSO treatment, Average value: 6.54
[1]; [7]
  effect on colon shortening in DSS-induced ulcerative colitis mice: good therapeutic effect on colon shortening
  effect on weight loss in DSS-induced ulcerative colitis mice: favorable restorative effect on weight loss
[1]; by day 9, 50 mg/kg qd by gavage
  weight loss: 3.09%
[1]; by day 10, 6.25 mg/kg qd by gavage
  weight loss: 7.52%
[1]; by day 10, 12.5 mg/kg qd by gavage
  weight loss: 8.99%
[1]; by day 10, 25 mg/kg qd by gavage
  weight loss: 7.96%
[1]; [4]
  weight loss: 3.8%
[1]; day 1, 6.25 mg/kg qd by gavage
  relative body weight (% of initial): 100±0.00%
[1]; day 1, 12.5 mg/kg qd by gavage
  relative body weight (% of initial): 100±0.00%
[1]; day 1, 25 mg/kg qd by gavage
  relative body weight (% of initial): 100±0.00%
[1]; day 1, 50 mg/kg qd by gavage
  relative body weight (% of initial): 100±0.00%
[1]; day 2, 6.25 mg/kg qd by gavage
  relative body weight (% of initial): 101.5± 0.43%
[1]; day 2, 12.5 mg/kg qd by gavage
  relative body weight (% of initial): 99.9±0.63%
[1]; day 2, 25 mg/kg qd by gavage
  relative body weight (% of initial): 100.5± 0.37%
[1]; day 2, 50 mg/kg qd by gavage
  relative body weight (% of initial): 99.1±0.65%
[1]; day 3, 6.25 mg/kg qd by gavage
  relative body weight (% of initial): 102.4± 0.78%
[1]; day 3, 12.5 mg/kg qd by gavage
  relative body weight (% of initial): 100.8± 0.67%
[1]; day 3, 25 mg/kg qd by gavage
  relative body weight (% of initial): 101.1± 0.59%
[1]; day 3, 50 mg/kg qd by gavage
  relative body weight (% of initial): 100.2±0.78%
[1]; day 4, 6.25 mg/kg qd by gavage
  relative body weight (% of initial): 101.9± 1.02%
[1]; day 4, 12.5 mg/kg qd by gavage
  relative body weight (% of initial): 99.9 ± 0.87%
[1]; day 4, 25 mg/kg qd by gavage
  relative body weight (% of initial): 100.8± 0.44%
[1]; day 4, 50 mg/kg qd by gavage
  relative body weight (% of initial): 100.0±0.74%
[1]; day 5, 6.25 mg/kg qd by gavage
  relative body weight (% of initial): 101.7± 0.98%
[1]; day 5, 12.5 mg/kg qd by gavage
  relative body weight (% of initial): 100.5± 0.88%
[1]; day 5, 25 mg/kg qd by gavage
  relative body weight (% of initial): 99.8±0.61%
[1]; day 5, 50 mg/kg qd by gavage
  relative body weight (% of initial): 100.7±1.01%
[1]; day 6, 6.25 mg/kg qd by gavage
  relative body weight (% of initial): 100±0.97%
[1]; day 6, 12.5 mg/kg qd by gavage
  relative body weight (% of initial): 97.4±0.87%
[1]; day 6, 25 mg/kg qd by gavage
  relative body weight (% of initial): 97.5±0.81%
[1]; day 6, 50 mg/kg qd by gavage
  relative body weight (% of initial): 98.0±1.15%
[1]; day 7, 6.25 mg/kg qd by gavage
  relative body weight (% of initial): 96.4±1.18%
[1]; day 7, 12.5 mg/kg qd by gavage
  relative body weight (% of initial): 95.0±1.12%
[1]; day 7, 25 mg/kg qd by gavage
  relative body weight (% of initial): 95.3±0.98%
[1]; day 7, 50 mg/kg qd by gavage
  relative body weight (% of initial): 96.9±1.03%
[1]; day 8, 6.25 mg/kg qd by gavage
  relative body weight (% of initial): 94.4±1.50%
[1]; day 8, 12.5 mg/kg qd by gavage
  relative body weight (% of initial): 92.7±1.28%
[1]; day 8, 25 mg/kg qd by gavage
  relative body weight (% of initial): 93.7±1.43%
[1]; day 8, 50 mg/kg qd by gavage
  relative body weight (% of initial): 96.7±1.20%
[1]; day 9, 6.25 mg/kg qd by gavage
  relative body weight (% of initial): 93.4±1.75%
[1]; day 9, 12.5 mg/kg qd by gavage
  relative body weight (% of initial): 92.7±1.55%
[1]; day 9, 25 mg/kg qd by gavage
  relative body weight (% of initial): 92.6±2.25%
[1]; day 9, 50 mg/kg qd by gavage
  relative body weight (% of initial): 96.9± 1.41 %
[1]; day 10, 6.25 mg/kg qd by gavage
  relative body weight (% of initial): 92.5± 2.02 %
[1]; day 10, 12.5 mg/kg qd by gavage
  relative body weight (% of initial): 91.0± 1.78 %
[1]; day 10, 25 mg/kg qd by gavage
  relative body weight (% of initial): 92.0± 2.38 %
[1]; day 10, 50 mg/kg qd by gavage
  relative body weight (% of initial): 96.2± 1.38 %
[1]; day 11, 6.25 mg/kg qd by gavage
  relative body weight (% of initial): 92.4±2.22%
[1]; day 11, 12.5 mg/kg qd by gavage
  relative body weight (% of initial): 91.9±1.91%
[1]; day 11, 25 mg/kg qd by gavage
  relative body weight (% of initial): 94.6± 1.73 %
[1]; day 11, 50 mg/kg qd by gavage
  relative body weight (% of initial): 96.6± 1.45 %
[1]; day 12, 6.25 mg/kg qd by gavage
  relative body weight (% of initial): 92.7±2.19%
[1]; day 12, 12.5 mg/kg qd by gavage
  relative body weight (% of initial): 92.1±1.17%
[1]; day 12, 25 mg/kg qd by gavage
  relative body weight (% of initial): 93.5±1.57%
[1]; day 12, 50 mg/kg qd by gavage
  relative body weight (% of initial): 96.5± 1.62 %
[1]; [8]
  Colon length Mean: 7.18 cm
  relative body weight (% of initial): 92.0±2.52%
[1]; [9]
  Colon length Mean: 7.85 cm
  relative body weight (% of initial): 92.1±1.17%
[1]; day 13, 25 mg/kg qd by gavage
  Colon length Mean: 7.28 cm
  relative body weight (% of initial): 95.3±1.63%
[1]; day 13, 50 mg/kg qd by gavage
  Colon length Mean: 8.27 cm
  relative body weight (% of initial): 96.5± 1.62 %
[1]; day 13, 6.25 mg/kg qd by gavage, 6.25 mg/kg
  Relative colon length (%): 89.8### %
[1]; day 13, 6.25 mg/kg qd by gavage, listed as compound 23, 6.25 mg/kg
  Relative colon length (%): 89.79%
[1]; day 13, 12.5 mg/kg qd by gavage, 12.5 mg/kg
  Relative colon length (%): 98.1#### %
[1]; day 13, 12.5 mg/kg qd by gavage, listed as compound 23, 12.5 mg/kg
  Relative colon length (%): 98.1%
[1]; day 13, 25 mg/kg qd by gavage, 25 mg/kg
  Relative colon length (%): 90.9#### %
[1]; day 13, 25 mg/kg qd by gavage, listed as compound 23, 25 mg/kg
  Relative colon length (%): 90.9%
[1]; [5]
  Relative colon length (%): 103.4#### %
[1]; day 13, 50 mg/kg qd by gavage, listed as compound 23, 50 mg/kg
  Relative colon length (%): 103.3%
[2]; in vivo, po, 20 mg/kg
  AUC(0-t): 5060 ng·h/mL
  Cmax: 1850 ng/mL
  MRT inf: 2.2 h
  Tmax: 2 h
  half-life: 2.65 h

## CN(C)CCN(C)c1cc(Cl)cc2nc(Nc3ccc(OC(F)(F)F)cc3)ncc12 [Compound 44]
[2]
  F: 34.3%
[2]; in vivo, iv, 1 mg/kg
  AUC(0-t): 650 ng·h/mL
  MRT inf: 8.9 h
  half-life: 15.1 h
[2]; in vivo, po, 25 mg/kg
  AUC(0-t): 5570 ng·h/mL
  Cmax: 389 ng/mL
  MRT inf: 8.2 h
  Tmax: 6 h
  half-life: 8.7 h

## FC(F)(F)Oc1ccc(Nc2ncc3c(N4CCOCC4)cc(Cl)cc3n2)cc1 [Compound 45]
[3]; absolute bioavailability, p.o. 6 mg/kg vs i.v. 1 mg/kg
  F: 10.7%
[3]; dog, in vivo, iv, i.v. 1mg/kg
  AUC(0-t): 1560 ng·h/mL
  MRT inf: 3.56 h
  half-life: 8.88 h
[3]; dog, in vivo, po, p.o. 6 mg/kg
  AUC(0-t): 990 ng·h/mL
  Cmax: 204 ng/mL
  MRT inf: 5.9 h
  Tmax: 2 h
  half-life: 7.18 h
[2]
  F: 27.6%
[2]; in vivo, iv, 1 mg/kg
  AUC(0-t): 1180 ng·h/mL
  MRT inf: 1.5 h
  half-life: 2.2 h
[2]; in vivo, po, 25 mg/kg
  AUC(0-t): 8400 ng·h/mL
  Cmax: 2550 ng/mL
  MRT inf: 3.2 h
  Tmax: 2 h
  half-life: 5.4 h

— EP4772506A1, “COMPOUND FOR REGULATING ACTIVITY OF MICRORNA-124” (Jiangsu Chia Tai Fenghai Pharmaceutical Co., Ltd., priority 2023, dated 2025)
